Experimental data published in patent publication US11753397B2, “Cereblon binders for the degradation of ikaros” (C4 Therapeutics, Inc., priority 2018, dated 2023).

Test system: NCIH929.1 cells
Assay: Cell viability assay (CellTiter-Glo 2.0, ATP quantification)
Assay type: cell-based
Conditions: NCIH929.1 cell viability, CellTiter-Glo 2.0, 96 hr incubation, top concentration 1 μM
How it was run: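 Cells seeded at 750/well in RPMI with 10% FBS and 0.05 mM 2-mercaptoethanol, exposed 96 h at 37 °C to 10-point half-log dilutions in duplicate, top 1 μM. Viability by CellTiter-Glo 2.0 ATP luminescence, with a day-0 read as cytostatic baseline (CT0).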

O=C1CCC(N2C(=O)c3cccc(NCc4cnn(C5CCN(C(=O)C67CCC(C6)C7)CC5)c4)c3C2=O)C(=O)N1 (stereo not shown) [Compound 97, 4-(((1-(1-(bicyclo[2.1.1]hexane-1-carbonyl)piperidin-4-yl)-1H-pyrazol-4-yl)methyl)amino)-2-(2,6-dioxopiperidin-3-yl)isoindoline-1,3-dione] and O=C1CCC(N2C(=O)c3cccc(NCc4cnn(C5CCN(C(=O)C6C7(CC7)C67CC7)CC5)c4)c3C2=O)C(=O)N1 (stereo not shown) [Compound 98, 2-(2,6-dioxopiperidin-3-yl)-4-(((1-(1-(dispiro[2.0.24.13]heptane-7-carbonyl)piperidin-4-yl)-1H-pyrazol-4-yl)methyl)amino)isoindoline-1,3-dione] cannot be ordered by GI50: less than 0.1 µM for the first, less than 0.001 µM for the second.

CC(=O)NCC1CCC(C(=O)N2CCC(n3cc(CNc4cccc5c4C(=O)N(C4CCC(=O)NC4=O)C5=O)cn3)CC2)CC1 (stereo not shown) [Compound 99, N-((4-(4-(4-(((2-(2,6-dioxopiperidin-3-yl)-1,3-dioxoisoindolin-4-yl)amino)methyl)-1H-pyrazol-1-yl)piperidine-1-carbonyl)cyclohexyl)methyl)acetamide] and COCC(=O)N1CCC(C(=O)N2CCC(n3cc(CNc4cccc5c4C(=O)N(C4CCC(=O)NC4=O)C5=O)cn3)CC2)CC1 (stereo not shown) [Compound 111, 2-(2,6-dioxopiperidin-3-yl)-4-(((1-(1-(1-(2-methoxyacetyl)piperidine-4-carbonyl)piperidin-4-yl)-1H-pyrazol-4-yl)methyl)amino)isoindoline-1,3-dione] cannot be ordered by GI50: less than 0.1 µM for the first, less than 0.1 µM for the second.

O=C1CCC(N2C(=O)c3cccc(NCc4cnn(C5CCN(C(=O)C6CCN(c7ccccn7)CC6)CC5)c4)c3C2=O)C(=O)N1 (stereo not shown) [Compound 100, 2-(2,6-dioxopiperidin-3-yl)-4-(((1-(1-(1-(pyridin-2-yl)piperidine-4-carbonyl)piperidin-4-yl)-1H-pyrazol-4-yl)methyl)amino)isoindoline-1,3-dione] and Cc1ccc(N2CCC(C(=O)N3CCC(n4cc(CNc5cccc6c5C(=O)N(C5CCC(=O)NC5=O)C6=O)cn4)CC3)CC2)nc1 (stereo not shown) [Compound 118, 2-(2,6-dioxopiperidin-3-yl)-4-(((1-(1-(1-(5-methylpyridin-2-yl)piperidine-4-carbonyl)piperidin-4-yl)-1H-pyrazol-4-yl)methyl)amino)isoindoline-1,3-dione] cannot be ordered by GI50: less than 0.001 µM for the first, less than 0.001 µM for the second.

O=C1CCC(N2C(=O)c3cccc(NCc4cnn(C5CCN(C(=O)C6CCN(C(=O)c7ccccc7)CC6)CC5)c4)c3C2=O)C(=O)N1 (stereo not shown) [Compound 101, 4-(((1-(1-(1-benzoylpiperidine-4-carbonyl)piperidin-4-yl)-1H-pyrazol-4-yl)methyl)amino)-2-(2,6-dioxopiperidin-3-yl)isoindoline-1,3-dione] and O=C1CCC(N2C(=O)c3cccc(NCc4cnn(C5CCN(C(=O)C6CCN(C(=O)Cc7ccccc7)CC6)CC5)c4)c3C2=O)C(=O)N1 (stereo not shown) [Compound 113, 2-(2,6-dioxopiperidin-3-yl)-4-(((1-(1-(1-(2-phenylacetyl)piperidine-4-carbonyl)piperidin-4-yl)-1H-pyrazol-4-yl)methyl)amino)isoindoline-1,3-dione] cannot be ordered by GI50: less than 0.1 µM for the first, less than 0.1 µM for the second.

CC(C)(C)OC(=O)N1CCC(F)(C(=O)N2CCC(n3cc(CNc4cccc5c4C(=O)N(C4CCC(=O)NC4=O)C5=O)cn3)CC2)CC1 (stereo not shown) [Compound 102, tert-butyl 4-(4-(4-(((2-(2,6-dioxopiperidin-3-yl)-1,3-dioxoisoindolin-4-yl)amino)methyl)-1H-pyrazol-1-yl)piperidine-1-carbonyl)-4-fluoropiperidine-1-carboxylate] and CC(C)(C)OC(=O)N1CCC(C(=O)N2CCC(n3cc(CNc4cccc5c4C(=O)N(C4CCC(=O)NC4=O)C5=O)cn3)CC2)CC1 (stereo not shown) [Compound 121, tert-butyl 4-(4-(4-(((2-(2,6-dioxopiperidin-3-yl)-1,3-dioxoisoindolin-4-yl)amino)methyl)-1H-pyrazol-1-yl)piperidine-1-carbonyl)piperidine-1-carboxylate] cannot be ordered by GI50: less than 0.1 µM for the first, less than 0.1 µM for the second.

COc1ccc(-c2cc(C(=O)N3CCC(n4cc(CNc5cccc6c5C(=O)N(C5CCC(=O)NC5=O)C6=O)cn4)CC3)ccn2)cc1 (stereo not shown) [Compound 103, 2-(2,6-dioxopiperidin-3-yl)-4-(((1-(1-(2-(4-methoxyphenyl)isonicotinoyl)piperidin-4-yl)-1H-pyrazol-4-yl)methyl)amino)isoindoline-1,3-dione] and O=C1CCC(N2C(=O)c3cccc(NCc4cnn(C5CCN(C(=O)c6cccc(Cn7cccn7)c6)CC5)c4)c3C2=O)C(=O)N1 (stereo not shown) [Compound 119, 4-(((1-(1-(3-((1H-pyrazol-1-yl)methyl)benzoyl)piperidin-4-yl)-1H-pyrazol-4-yl)methyl)amino)-2-(2,6-dioxopiperidin-3-yl)isoindoline-1,3-dione] cannot be ordered by GI50: less than 0.1 µM for the first, less than 0.1 µM for the second.

Cc1cccc2c(CC(=O)N3CCC(n4cc(CNc5cccc6c5C(=O)N(C5CCC(=O)NC5=O)C6=O)cn4)CC3)noc12 (stereo not shown) [Compound 104, 2-(2,6-dioxopiperidin-3-yl)-4-(((1-(1-(2-(7-methylbenzo[d]isoxazol-3-yl)acetyl)piperidin-4-yl)-1H-pyrazol-4-yl)methyl)amino)isoindoline-1,3-dione] and Cc1oc(-c2cccc(F)c2)nc1CC(=O)N1CCC(n2cc(CNc3cccc4c3C(=O)N(C3CCC(=O)NC3=O)C4=O)cn2)CC1 (stereo not shown) [Compound 105, 2-(2,6-dioxopiperidin-3-yl)-4-(((1-(1-(2-(2-(3-fluorophenyl)-5-methyloxazol-4-yl)acetyl)piperidin-4-yl)-1H-pyrazol-4-yl)methyl)amino)isoindoline-1,3-dione] cannot be ordered by GI50: less than 0.001 µM for the first, less than 0.1 µM for the second.

O=C1CCC(N2C(=O)c3cccc(NCc4cnn(C5CCN(C(=O)Cc6ccc(-c7ccc(F)cc7)cc6)CC5)c4)c3C2=O)C(=O)N1 (stereo not shown) [Compound 106, 2-(2,6-dioxopiperidin-3-yl)-4-(((1-(1-(2-(4′-fluoro-[1,1′-biphenyl]-4-yl)acetyl)piperidin-4-yl)-1H-pyrazol-4-yl)methyl)amino)isoindoline-1,3-dione] and O=C1CCC(N2C(=O)c3cccc(NCc4cnn(C5CCN(C(=O)Cc6cnn(-c7ccccc7)c6)CC5)c4)c3C2=O)C(=O)N1 (stereo not shown) [Compound 120, 2-(2,6-dioxopiperidin-3-yl)-4-(((1-(1-(2-(1-phenyl-1H-pyrazol-4-yl)acetyl)piperidin-4-yl)-1H-pyrazol-4-yl)methyl)amino)isoindoline-1,3-dione] cannot be ordered by GI50: less than 0.1 µM for the first, less than 0.1 µM for the second.

O=C1CCC(N2C(=O)c3cccc(NCc4cnn(C5CCN(C(=O)C6CCN(C(=O)C7CCCC7)CC6)CC5)c4)c3C2=O)C(=O)N1 (stereo not shown) [Compound 107, 4-(((1-(1-(1-(cyclopentanecarbonyl)piperidine-4-carbonyl)piperidin-4-yl)-1H-pyrazol-4-yl)methyl)amino)-2-(2,6-dioxopiperidin-3-yl)isoindoline-1,3-dione] and O=C1CCC(N2C(=O)c3cccc(NCc4cnn(C5CCN(C(=O)C6CCN(C(=O)C7CCC7)CC6)CC5)c4)c3C2=O)C(=O)N1 (stereo not shown) [Compound 112, 4-(((1-(1-(1-(cyclobutanecarbonyl)piperidine-4-carbonyl)piperidin-4-yl)-1H-pyrazol-4-yl)methyl)amino)-2-(2,6-dioxopiperidin-3-yl)isoindoline-1,3-dione] cannot be ordered by GI50: less than 0.1 µM for the first, less than 0.1 µM for the second.

O=C1CCC(N2C(=O)c3cccc(NCc4cnn(C5CCN(C(=O)c6cccc(C#Cc7ccccc7)c6)CC5)c4)c3C2=O)C(=O)N1 (stereo not shown) [Compound 108, 2-(2,6-dioxopiperidin-3-yl)-4-(((1-(1-(3-(phenylethynyl)benzoyl)piperidin-4-yl)-1H-pyrazol-4-yl)methyl)amino)isoindoline-1,3-dione] and O=C1CCC(N2C(=O)c3cccc(NCc4cnn(C5CCN(C(=O)Cc6coc(-c7ccccc7)n6)CC5)c4)c3C2=O)C(=O)N1 (stereo not shown) [Compound 116, 2-(2,6-dioxopiperidin-3-yl)-4-(((1-(1-(2-(2-phenyloxazol-4-yl)acetyl)piperidin-4-yl)-1H-pyrazol-4-yl)methyl)amino)isoindoline-1,3-dione] cannot be ordered by GI50: less than 0.1 µM for the first, less than 0.1 µM for the second.

O=C1CCC(N2C(=O)c3cccc(NCc4cnn(C5CCN(C(=O)C6CCN(C(=O)C7CCOCC7)CC6)CC5)c4)c3C2=O)C(=O)N1 (stereo not shown) [Compound 109, 2-(2,6-dioxopiperidin-3-yl)-4-(((1-(1-(1-(tetrahydro-2H-pyran-4-carbonyl)piperidine-4-carbonyl)piperidin-4-yl)-1H-pyrazol-4-yl)methyl)amino)isoindoline-1,3-dione] and O=C1CCC(N2C(=O)c3cccc(NCc4cnn(C5CCN(C(=O)CC6CCC(c7ccccc7)CC6)CC5)c4)c3C2=O)C(=O)N1 (stereo not shown) [Compound 117, 2-(2,6-dioxopiperidin-3-yl)-4-(((1-(1-(2-(4-phenylcyclohexyl)acetyl)piperidin-4-yl)-1H-pyrazol-4-yl)methyl)amino)isoindoline-1,3-dione] cannot be ordered by GI50: less than 0.1 µM for the first, less than 0.1 µM for the second.

Cc1ccc(OC(C)(C)C(=O)N2CCC(n3cc(CNc4cccc5c4C(=O)N(C4CCC(=O)NC4=O)C5=O)cn3)CC2)cc1C (stereo not shown) [Compound 110, 4-(((1-(1-(2-(3,4-dimethylphenoxy)-2-methylpropanoyl)piperidin-4-yl)-1H-pyrazol-4-yl)methyl)amino)-2-(2,6-dioxopiperidin-3-yl)isoindoline-1,3-dione] and CCc1ccc2c(CC(=O)N3CCC(n4cc(CNc5cccc6c5C(=O)N(C5CCC(=O)NC5=O)C6=O)cn4)CC3)coc2c1 (stereo not shown) [Compound 114, 2-(2,6-dioxoopiperidin-3-yl)-4-(((1-(1-(2-(6-ethylbenzofuran-3-yl)acetyl)piperidin-4-yl)-1H-pyrazol-4-yl)methyl)amino)isoindoline-1,3-dione] cannot be ordered by GI50: less than 0.1 µM for the first, less than 0.1 µM for the second.

With Cc1cccc(-c2nc(CC(=O)N3CCC(n4cc(CNc5cccc6c5C(=O)N(C5CCC(=O)NC5=O)C6=O)cn4)CC3)c(C)o2)c1 (stereo not shown) [Compound 115, 2-(2,6-dioxopiperidin-3-yl)-4-(((1-(1-(2-(5-methyl-2-(m-tolyl)oxazol-4-yl)acetyl)piperidin-4-yl)-1H-pyrazol-4-yl)methyl)amino)isoindoline-1,3-dione] the GI50 was less than 0.1 µM.
